According to ChEMBL document CHEMBL6103537 (J Med Chem, 2025):
The source made the active and inactive calls. The calls are words filed in the database; no cut-off is given here.

Columns and labels:
[1] = biological target: T1, Protein cereblon/Signal transducer and activator of transcription 1-alpha/beta (Homo sapiens) (UniProt P42224+Q96SW2); assay: PROTAC activity at STAT1/CRBN in human PBMC cells assessed as reduction in STAT1 level at 10 uM incubated for 18 hrs by Western blot analysis relative to control; format: cell-based
[2] = Stability in human plasma assessed as parent compound remaining measured at 60 mins by LC-MS/MS analysis; format: ADME, cell-free; settings: read-out: Stability
[3] = Metabolic stability in dog liver microsome assessed as half life measured upto 60 mins in presence of NADPH by LC-MS/MS analysis; format: ADME, Canis lupus familiaris; settings: liver microsomes
[4] = Stability in dog plasma assessed as parent compound remaining measured at 15 mins by LC-MS/MS analysis; format: ADME, cell-free, Canis lupus familiaris; settings: read-out: Stability
[5] = biological target: Protein cereblon/Signal transducer and activator of transcription 5A/Signal transducer and activator of transcription 5B (Homo sapiens) (UniProt P42229+P51692+Q96SW2); assay: PROTAC activity at STAT5/CRBN in human L-1236 cells assessed as reduction in STAT5 level at 10 uM incubated for 24 hrs by Western blot analysis; format: cell-based
[6] = biological target: T2, Protein cereblon/Signal transducer and activator of transcription 6 (Homo sapiens, UniProt P42226+Q96SW2); assay: PROTAC activity at STAT6/CRBN in human MV4-11 cells assessed as reduction in STAT6 level incubated for 12 hrs by Western blot analysis; format: cell-based
[7] = biological target: T2, Protein cereblon/Signal transducer and activator of transcription 6; assay: PROTAC activity at STAT6/CRBN in human MV4-11 cells assessed as reduction in STAT6 level at 2 uM by HiBiT bioluminescence assay; format: cell-based; settings: time <= 1200.0 min
[8] = Downregulation of AKR7A3 level in human PBMC cells at 5 uM incubated for 18 hrs by Western blot analysis relative to control; format: functional
[9] = Stability in human plasma assessed as parent compound remaining measured at 15 mins by LC-MS/MS analysis; format: ADME, cell-free; settings: read-out: Stability
[10] = Downregulation of EPB41L1 level in human PBMC cells at 5 uM incubated for 18 hrs by Western blot analysis relative to control; format: functional
[11] = Stability in mouse plasma assessed as parent compound remaining measured at 120 mins by LC-MS/MS analysis; format: ADME, cell-free; settings: read-out: Stability
[12] = Stability in dog plasma assessed as parent compound remaining measured at 5 mins by LC-MS/MS analysis; format: ADME, cell-free, Canis lupus familiaris; settings: read-out: Stability
[13] = Metabolic stability in human liver microsome assessed as parent compound remaining measured at 30 mins in presence of NADPH by LC-MS/MS analysis; format: ADME; settings: liver microsomes, read-out: Stability
[14] = Metabolic stability in human liver microsome assessed as parent compound remaining measured at 15 mins in presence of NADPH by LC-MS/MS analysis; format: ADME; settings: liver microsomes, read-out: Stability
[15] = Metabolic stability in dog liver microsome assessed as parent compound remaining measured at 30 mins in presence of NADPH by LC-MS/MS analysis; format: ADME, Canis lupus familiaris; settings: liver microsomes, read-out: Stability
[16] = biological target: T2, Protein cereblon/Signal transducer and activator of transcription 6; assay: PROTAC activity at STAT6/CRBN in human MV4-11 cells assessed as reduction in STAT6 level at 2 uM measured upto 1200 mins in presence of […] by HiBiT bioluminescence assay; format: cell-based
[17] = Stability in mouse plasma assessed as parent compound remaining measured at 30 mins by LC-MS/MS analysis; format: ADME, cell-free; settings: read-out: Stability
[18] = biological target: T2, Protein cereblon/Signal transducer and activator of transcription 6; assay: PROTAC activity at STAT6/CRBN in human PBMC cells assessed as reduction in STAT6 level at 10 uM incubated for 18 hrs by Western blot analysis relative to control; format: cell-based
[19] = biological target: Protein cereblon/Signal transducer and activator of transcription 2 (Homo sapiens) (UniProt Q96SW2+P52630); assay: PROTAC activity at STAT2/CRBN in human PBMC cells assessed as reduction in STAT2 level at 10 uM incubated for 18 hrs by Western blot analysis relative to control; format: cell-based
[20] = biological target: Protein cereblon/Signal transducer and activator of transcription 4 (Homo sapiens) (UniProt Q96SW2+Q14765); assay: PROTAC activity at STAT4/CRBN in human L-1236 cells assessed as reduction in STAT4 level at 10 uM incubated for 24 hrs by Western blot analysis; format: cell-based
[21] = biological target: T2, Protein cereblon/Signal transducer and activator of transcription 6; assay: PROTAC activity at STAT6 at Y641 residue/CRBN in human L-1236 cells assessed as reduction in STAT6 level at 10 uM incubated for 24 hrs by Western blot analysis; format: cell-based
[22] = biological target: T2, Protein cereblon/Signal transducer and activator of transcription 6; assay: PROTAC activity at STAT6/CRBN in human MV4-11 cells assessed as reduction in STAT6 level at 5 uM incubated for 12 hrs by Western blot analysis relative to control; format: cell-based
[23] = Metabolic stability in monkey liver microsome assessed as parent compound remaining measured at 45 mins in presence of NADPH by LC-MS/MS analysis; format: ADME, Macaca mulatta; settings: rhesus monkey, liver microsomes, read-out: Stability
[24] = biological target: T2, Protein cereblon/Signal transducer and activator of transcription 6; assay: PROTAC activity at STAT6/CRBN in human MV4-11 cells assessed as reduction in STAT6 level at 2 uM measured upto 1200 mins in presence of lenalidomide by HiBiT bioluminescence assay; format: cell-based; settings: Jurkat
[25] = Metabolic stability in monkey liver microsome assessed as half life measured upto 60 mins in presence of NADPH by LC-MS/MS analysis; format: ADME, Macaca mulatta; settings: rhesus monkey, liver microsomes
[26] = Stability in rat plasma assessed as parent compound remaining measured at 120 mins by LC-MS/MS analysis; format: ADME, cell-free; settings: read-out: Stability
[27] = Metabolic stability in monkey liver microsome assessed as parent compound remaining measured at 30 mins in presence of NADPH by LC-MS/MS analysis; format: ADME, Macaca mulatta; settings: rhesus monkey, liver microsomes, read-out: Stability
[28] = Metabolic stability in dog liver microsome assessed as parent compound remaining measured at 5 mins in presence of NADPH by LC-MS/MS analysis; format: ADME, Canis lupus familiaris; settings: liver microsomes, read-out: Stability
[29] = Metabolic stability in rat liver microsome assessed as half life measured upto 60 mins in presence of NADPH by LC-MS/MS analysis; format: ADME; settings: liver microsomes
[30] = Stability in human plasma assessed as parent compound remaining measured at 120 mins by LC-MS/MS analysis; format: ADME, cell-free; settings: read-out: Stability
[31] = system: PBMC; assay: Downregulation of STAT1 level in human PBMC cells at 5 uM incubated for 18 hrs by Western blot analysis relative to control; format: functional, cell-based
[32] = Stability in mouse plasma assessed as parent compound remaining measured at 5 mins by LC-MS/MS analysis; format: ADME, cell-free; settings: read-out: Stability
[33] = Stability in dog plasma assessed as parent compound remaining measured at 60 mins by LC-MS/MS analysis; format: ADME, cell-free, Canis lupus familiaris; settings: read-out: Stability
[34] = system: PBMC; assay: Downregulation of STAT3 level in human PBMC cells at 5 uM incubated for 18 hrs by Western blot analysis relative to control; format: functional, cell-based
[35] = Metabolic stability in human liver microsome assessed as parent compound remaining measured at 45 mins in presence of NADPH by LC-MS/MS analysis; format: ADME; settings: liver microsomes, read-out: Stability
[36] = biological target: T1, Protein cereblon/Signal transducer and activator of transcription 1-alpha/beta (Homo sapiens); assay: PROTAC activity at STAT1/CRBN in human L-1236 cells assessed as reduction in STAT1 level at 10 uM incubated for 24 hrs by Western blot analysis; format: cell-based

Q: For `CC(C)(C)[C@H](NC(=O)c1cc2cc(C(F)(F)P(=O)(O)O)ccc2s1)C(=O)N1C[C@@H](OCCCCCC#Cc2cccc3c2CN(C2CCC(=O)NC2=O)C3=O)C[C@H]1C(=O)N1CCO[C@H](c2ccccc2)C1` (stereo partly specified), which Activity [1] is on record?
A: No effect

Q: And the remaining at 1 h [2]?
A: 94%

Q: And the half-life [3]?
A: > 2 h

Q: And the remaining at 0.25 h [4]?
A: 87%

Q: What about the Activity [5] of the same compound?
A: No effect

Q: And the DC50 [6]?
A: 1 nM

Q: What about the Activity [7] of the same compound?
A: Time-dependent-effect

Q: What about the Activity [8] of the same compound?
A: 51%

Q: What about the remaining at 0.25 h [9] of the same compound?
A: 94%

Q: What about the Activity [10] of the same compound?
A: 60%

Q: What about the remaining at 2 h [11] of the same compound?
A: 79%

Q: And the remaining at 5 min [12]?
A: 82%

Q: What about the remaining at 0.5 h [13] of the same compound?
A: 92%

Q: And the remaining at 0.25 h [14]?
A: 98%

Q: And the remaining at 0.5 h [15]?
A: 95%

Q: And the Activity [16]?
A: Active

Q: What about the remaining at 0.5 h [17] of the same compound?
A: 96%

Q: What about the Emax [18] of the same compound?
A: > 90%

Q: What about the Activity [19] of the same compound?
A: No effect

Q: What about the Activity [20] of the same compound?
A: No effect

Q: What about the Activity [21] of the same compound?
A: No effect

Q: And the Emax [22]?
A: > 95%

Q: And the remaining at 0.75 h [23]?
A: 61%

Q: What about the Activity [24] of the same compound?
A: Active

Q: And the half-life [25]?
A: 1.05 h

Q: And the remaining at 2 h [26]?
A: 67%

Q: And the remaining at 0.5 h [27]?
A: 70%

Q: What about the remaining at 5 min [28] of the same compound?
A: 97%

Q: And the half-life [29]?
A: > 2 h

Q: And the remaining at 2 h [30]?
A: 74%

Q: And the Activity [31]?
A: inactive

Q: And the remaining at 5 min [32]?
A: 102%

Q: What about the remaining at 1 h [33] of the same compound?
A: 69%

Q: And the Activity [34]?
A: inactive

Q: What about the remaining at 0.75 h [35] of the same compound?
A: 91%

Q: What about the Activity [36] of the same compound?
A: No effect
